The values that follow come from PMC7570662, “In Vivo Pharmacokinetic Analysis Utilizing Non-Targeted and Targeted Mass Spectrometry and In Vitro Assay against Transient Receptor Potential Channels of Maobushisaishinto and Its Constituent Asiasari Radix” (Molecules, 2020).

Test [1] addresses T1, human TRPA1 (Homo sapiens, UniProt O75762).
T1 construct: Each full-length human TRPA1, TRPV1, TRPV4, and TRPM8 coding regions were introduced into a pcDNA4/TO vector; expressed in transfected cells; host or cells: T-REx-293 cells (tetracycline-induced, pcDNA4/TO vector)
The test is described as follows: Ca2+ influx assay in TRPA1-expressing T-REx-293 cells. The class given is cell-based. To be noted: for activation at 10 µM: T-REx-293, read-out: % of Activation Compared to Positive Control against Each Subfamily of TRP Channel TRPA1; for EC50: dose-response test, Ca2+ influx, read-out: EC50 Value against TRPA1. On the procedure:
(§1) Each full-length human TRPA1, TRPV1, TRPV4, and TRPM8 coding regions were introduced into a pcDNA4/TO vector (Thermo Fisher Scientific, Waltham, MA, USA) and transfected into T-REx-293 cells (Thermo Fisher Scientific) to obtain stable cell lines expressing human TRPA1, TRPV1, TRPV4, and TRPM8. Cells were cultured in DMEM with 10% FBS, 4 mmol/L L-glutamine, and penicillin/streptomycin.
(§2) Cells were suspended in medium with 1 µg/mL tetracycline and seeded in poly-D-lysine coated 96-well plate at 2.5 × 10^4 cells/well. After overnight culture, the cells were used for Ca^2+ influx assay.
(§3) The Ca^2+ influx assay was performed using a FLIPR Calcium 5 Assay Kit (Molecular Devices, Sunnyvale, CA, USA) according to previously reported methods with minor modifications. In brief, cells were incubated with 80 µL Ca^2+-chelating dye dissolved in assay buffer at pH 7.4 (Hanks’ Balanced Salt Solution containing 20 mmol/L of N-2-hydroxyethylpiperazine-N’-2-ethanesulfonic acid) at room temperature for 30 min. The plates were assayed using a FlexStation 3 Microplate Reader (Molecular Devices). The fluorescence intensity was traced entirely for 80 s. The baseline of fluorescence was measured for 20 s before adding 20 µL of test compound (final concentration, 10 µmol/L). The response was expressed as percentage activation using the relative fluorescence units (RFU) (% activation = 100 × ((RFUmax − RFUbaseline)/RFUbaseline) − 100). Furthermore, the activities of each test compound against several subfamilies of TRP channels were represented as the relative enhancement of Ca^2+ influx of each positive control, indicated as follows: 20 µmol/L of allyl isothiocyanate (an agonist of TRPA1), 2 µmol/L of capsaicin (an agonist of TRPV1), 4 µmol/L of GSK1016790A (an agonist of TRPV4), and 20 µmol/L of icilin (an agonist of TRPM8). The dose–response curve was fitted to the sigmoidal dose-response equation (top, the max response of each compound), and EC50 values were calculated using GraphPad Prism 7 software (GraphPad, San Diego, CA, USA).

Test [2] addresses T2, human TRPM8 (Homo sapiens, UniProt Q7Z2W7).
T2 construct: Each full-length human TRPA1, TRPV1, TRPV4, and TRPM8 coding regions were introduced into a pcDNA4/TO vector; expressed in transfected cells; host or cells: T-REx-293 cells (tetracycline-induced, pcDNA4/TO vector)
Briefly: Ca2+ influx assay in TRPM8-expressing T-REx-293 cells. The class given is cell-based. Conditions: 10 µmol/L test compound, relative to 20 µmol/L icilin; for activation at 10 µM: T-REx-293, read-out: % of Activation Compared to Positive Control against Each Subfamily of TRP Channel TRPM8. On the procedure:
as §1, §2, §3

The test system of test [3] is LPS-induced NO production in BV-2 microglial cells. Also noted: method as in PMID 18293448. To be noted: cited from earlier work.
Where [4] appears, read: 10 µmol/L test compound, relative to 20 µmol/L allyl isothiocyanate.

T2 sequence (Q7Z2W7 whole entry): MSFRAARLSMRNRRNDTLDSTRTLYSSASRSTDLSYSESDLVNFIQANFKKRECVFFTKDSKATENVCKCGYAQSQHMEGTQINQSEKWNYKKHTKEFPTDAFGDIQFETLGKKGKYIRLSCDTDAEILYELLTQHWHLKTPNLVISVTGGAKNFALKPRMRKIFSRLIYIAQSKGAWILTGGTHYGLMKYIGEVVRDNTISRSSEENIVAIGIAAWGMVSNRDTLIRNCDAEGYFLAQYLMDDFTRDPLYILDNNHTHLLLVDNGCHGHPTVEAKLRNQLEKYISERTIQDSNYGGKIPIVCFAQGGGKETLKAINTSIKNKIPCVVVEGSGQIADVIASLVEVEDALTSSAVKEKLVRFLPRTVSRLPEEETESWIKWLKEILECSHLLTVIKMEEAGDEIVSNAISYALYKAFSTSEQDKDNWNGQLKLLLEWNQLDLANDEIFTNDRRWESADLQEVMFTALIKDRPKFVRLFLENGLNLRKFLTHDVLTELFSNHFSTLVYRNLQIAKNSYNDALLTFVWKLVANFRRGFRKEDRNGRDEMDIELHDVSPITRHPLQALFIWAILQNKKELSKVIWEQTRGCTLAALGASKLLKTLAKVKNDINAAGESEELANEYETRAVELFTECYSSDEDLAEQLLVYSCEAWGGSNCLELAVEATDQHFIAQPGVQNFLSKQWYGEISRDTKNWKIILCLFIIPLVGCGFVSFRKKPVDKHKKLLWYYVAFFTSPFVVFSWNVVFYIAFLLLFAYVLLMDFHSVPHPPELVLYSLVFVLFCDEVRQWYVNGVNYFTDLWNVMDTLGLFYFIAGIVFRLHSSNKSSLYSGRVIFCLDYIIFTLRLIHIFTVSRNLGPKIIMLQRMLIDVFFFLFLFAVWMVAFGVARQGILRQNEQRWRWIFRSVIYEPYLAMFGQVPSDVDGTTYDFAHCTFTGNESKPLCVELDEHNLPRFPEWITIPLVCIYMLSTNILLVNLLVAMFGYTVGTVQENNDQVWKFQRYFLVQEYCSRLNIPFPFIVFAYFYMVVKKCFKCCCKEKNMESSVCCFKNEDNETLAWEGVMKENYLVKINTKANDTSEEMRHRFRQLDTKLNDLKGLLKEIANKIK
T1 sequence (O75762 whole entry): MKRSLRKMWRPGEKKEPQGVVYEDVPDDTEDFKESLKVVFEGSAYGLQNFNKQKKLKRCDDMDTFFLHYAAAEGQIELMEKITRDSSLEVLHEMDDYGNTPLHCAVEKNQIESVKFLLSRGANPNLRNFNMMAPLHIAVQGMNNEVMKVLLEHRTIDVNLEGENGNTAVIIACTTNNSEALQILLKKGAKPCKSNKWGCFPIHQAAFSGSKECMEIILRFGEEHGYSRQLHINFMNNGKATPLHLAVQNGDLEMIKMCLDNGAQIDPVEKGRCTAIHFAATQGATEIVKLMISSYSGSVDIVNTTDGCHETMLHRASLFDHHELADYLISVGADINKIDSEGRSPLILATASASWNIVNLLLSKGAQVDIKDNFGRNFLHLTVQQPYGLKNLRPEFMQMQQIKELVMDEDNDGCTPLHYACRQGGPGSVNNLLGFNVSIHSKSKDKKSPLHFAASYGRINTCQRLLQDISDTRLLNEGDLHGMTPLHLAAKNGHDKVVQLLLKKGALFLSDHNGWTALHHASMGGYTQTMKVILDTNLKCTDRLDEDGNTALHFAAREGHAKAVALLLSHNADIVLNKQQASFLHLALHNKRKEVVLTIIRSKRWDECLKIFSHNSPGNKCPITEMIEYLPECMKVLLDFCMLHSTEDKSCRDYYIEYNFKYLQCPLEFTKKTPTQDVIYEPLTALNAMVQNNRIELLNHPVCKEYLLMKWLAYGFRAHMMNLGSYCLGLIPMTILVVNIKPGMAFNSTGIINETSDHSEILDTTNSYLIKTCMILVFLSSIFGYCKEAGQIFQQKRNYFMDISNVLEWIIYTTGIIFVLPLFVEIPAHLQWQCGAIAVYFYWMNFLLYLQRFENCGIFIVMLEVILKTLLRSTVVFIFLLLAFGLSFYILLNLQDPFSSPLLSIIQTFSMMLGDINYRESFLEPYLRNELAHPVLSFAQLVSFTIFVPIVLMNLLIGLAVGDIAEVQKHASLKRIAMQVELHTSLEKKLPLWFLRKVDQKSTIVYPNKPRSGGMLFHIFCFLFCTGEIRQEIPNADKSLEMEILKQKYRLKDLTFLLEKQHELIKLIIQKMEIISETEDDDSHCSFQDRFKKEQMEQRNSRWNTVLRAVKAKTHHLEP

Regarding `C/C=C/C=C\CC/C=C/C=C/C(=O)NCC(C)C` [Amide A, (2E,4E,8Z,10E)-N-isobutyl-2,4,8,10-dodecatetraenamide], the activation at 10 µM amounted to 96% in test [1] (setting [4]) and 6.1% in test [2]. The EC50 in test [1] worked out at 0.47 µM. In test [3], the “Effect on LPS-induced NO production in BV-2 microglial cells” value is given as “inhibitory effect”.
For the compound `c1cc2c(cc1[C@H]1OC[C@H]3[C@@H]1CO[C@H]3c1ccc3c(c1)OCO3)OCO2` [Asarinin, (−)-Asarinin], the activation at 10 µM was 106% in test [1] (setting [4]) and 1.4% in test [2]. For the same compound, in test [1], the EC50 turned out to be 3.1 µM.
In the case of `CCC(=O)c1cc2c(cc1OC)OCO2` [Methyl kakuol], the “% of Activation Compared to Positive Control against Each Subfamily of TRP Channel TRPA1” value in test [1] (setting [4]) is recorded as 49%. Besides, in test [1], the EC50 came to 0.27 µM. In test [2], the “% of Activation Compared to Positive Control against Each Subfamily of TRP Channel TRPM8” value was 2.8%.
For the compound `c1cc2c(cc1[C@H]1OC[C@H]3[C@@H]1CO[C@@H]3c1ccc3c(c1)OCO3)OCO2` [Sesamin], the activation at 10 µM in test [1] (setting [4]) was 106%; in test [2], -0.8%. Further, the EC50 in test [1] is 2.3 µM. In addition, the “Effect on LPS-induced NO production in BV-2 microglial cells” value in test [3] was “inhibitory effect”.
